Experiments:
[1] = Solid-state stability evaluation (XRPD, HPLC); type: physicochemical; conditions: listed as Mucate salt crystal form A-I
Protocol: The following 6 test samples were placed under 25° C./60% RH and 40° C./75% RH conditions for 1 week, and then the physical and chemical stability of the samples was tested by XRPD and HPLC.
At the same time, after the p-toluenesulfonate salt crystal form A-II and crystal form B-III solids were placed at 80° C. for 24 hours, the physical and chemical stability of the samples were tested by XRPD and HPLC.

[2] = Hygroscopicity by dynamic moisture sorption (DVS); type: physicochemical; conditions: DVS, listed as Mucate salt crystal form A-I
Protocol: Dynamic moisture sorption (DVS): The curves were collected on a DVS Intrinsic of SMS (Surface Measurement Systems). At 25° C., the humidity range was 0% RH-95% RH, the step was 10% (the last step was 5%), and the dm/dt was 0.002%/min.
The hygroscopicity of the free compound of formula (I), mucate salt crystal form A-I, p-toluenesulfonate salt crystal forms A-II and B-III, di-p-toluenesulfonate salt crystal form A-IV and phosphate salt crystal form A-V was evaluated by dynamic moisture sorption instrument (DVS). Starting from 0% relative humidity (0% RH), the test collected the mass change percentage of the samples under constant temperature of 25° C. with humidity changes (0% RH-95% RH-0% RH).

[3] = Dynamic solubility in water, SGF, FaSSIF and FeSSIF; type: physicochemical; design: S (dynamic solubility): unit not given here; conditions: listed as Mucate salt crystal form A-I; for S (dynamic solubility): 37° C., feed 10 mg/mL
Protocol: Biological solvent Preparation • 1. […] 67.5 μL of concentrated hydrochloric acid (12 M) was added and the mixture was adjusted to a pH value of 1.8 with 1 M hydrochloric acid or 1 M NaOH solution. Purified water was added to make up to volume. • 2. Preparation of Fasted State Simulated Intestinal Fluid (FaSSIF): 0.17 g of anhydrous NaH2PO4, 0.021 g of NaOH, and 0.31 g of NaCl were weighed into a 50-mL volumetric flask. About 48 mL of purified water was added to dissolve the mixture completely, and the solution was adjusted to a pH value of 6.5 with 1 M hydrochloric acid or 1 M NaOH solution. Purified water was added to make up to volume. 0.11 g of SIF powder was added and dissolved completely. • 3. Preparation of Fed State Simulated Intestinal Fluid (FeSSIF): 0.41 mL of glacial acetic acid, 0.20 g of NaOH and 0.59 g of NaCl were weighed into a 50-mL volumetric flask. About 48 mL of purified water was added to dissolve the mixture completely, and the solution was adjusted to a pH value of 5.0 with 1 M hydrochloric acid or 1 M NaOH solution. Purified water was added to make up to volume. 0.56 g of SIF powder was added and dissolved completely.
The dynamic solubility of the free state, the mucate salt crystal form A-I, the p-toluenesulfonate salt crystal form A-II, the di-p-toluenesulfonate salt crystal form A-IV and the phosphate salt crystal form A-V of the compound of formula (I) in water and three biological solvents was evaluated.
The samples at each time point were centrifuged and filtered (0.45 μm PTFE filter head), and the HPLC concentration and pH value of the filtrate were determined.

[4] = test system: human lung cancer cells EBC-1; test: Efficacy in nude mouse tumor-bearing model of human lung cancer cells EBC-1; type: in vivo, Balb/c nude mouse
Description: In this assay, the free compound of formula (I) of the present application and different salts of the compound prepared in Examples 1, 2 and 5 were orally administered to a nude mouse tumor-bearing model of human lung cancer cells EBC-1 to study their effects on tumor growth.
Preparation of test compounds: an appropriate weight of the test compound (including the free form of the compound of formula (I) and different salts of the compound prepared in Examples 1, 2 and 5) was weighed, completely suspended/dissolved in an appropriate volume of 0.1% sodium carboxymethyl cellulose, stirred and vortexed to give a uniform solution or suspension.
Methods: All assays were authorized by the Animal Welfare Committee. EBC-1 in the logarithmic growth phase was inoculated into immune-deficient nude mice (BALB/c nude, female, 6-8 weeks old, weighing 18±2 g), subcutaneously on the right back, with a cell inoculation amount of 5×10^6/mouse. After the tumor grew to 150-200 mm^3, the animals were randomly divided into groups, 6 mice per group. The dose of each test substance was set at 15 mg/kg and 7.5 mg/kg (both based on the concentration of the effective formula (I) compound), and administered once a day for about 3 weeks. The test compounds were freshly prepared each day before use. During the assay, the tumor diameter was measured twice a week, and the mice were weighed at the same time. The calculation formula of tumor volume (TV) is: TV=1/2×a×b^2, where a and b represent length and width, respectively. The relative tumor volume (RTV) was calculated based on the measurement results, and the calculation formula is: RTV=Vt/V0, wherein V0 is the tumor volume measured at the time of cage grouping and dosing initiation (i.e., d0), and Vt is the tumor volume at each measurement. The evaluation index of antitumor activity is the relative tumor proliferation rate T/C (%), calculated as follows: T/C (%)=(TRTV/CRTV)×100%, TRTV: RTV of the treatment group; CRTV: RTV of the negative control group. T and C represent the average tumor volume at a certain time point in the drug administration group and the control group, respectively.

O=C(Nc1ccc(F)cc1)C1(C(=O)Nc2ccc(Oc3ccnc4cc(OCCCN5CCOCC5)c5c(c34)OCCO5)c(F)c2)CC1 [Example 1, N-(3-fluoro-4-((5-(3-morpholinopropoxy)-2,3-dihydro-[1,4]dioxano[2,3-f]quinolin-10-yl)oxy)phenyl)-N-(4-fluorophenyl)cyclopropane-1,1-dicarboxamide]
Purity ([1]; 25° C./60% RH, 1 week): 99.54 area %
Purity/initial purity ([1]; 25° C./60% RH, 1 week): 100.0%
Purity ([1]; 40° C./75% RH, 1 week): 99.56 area %
Purity/initial purity ([1]; 40° C./75% RH, 1 week): 100.0%
Purity ([1]; Starting): 99.56 area %
Moisture adsorption (25° C./80% RH) ([2]; 25° C./80% RH): 2.09%
Hygroscopicity ([2]; 25° C.): Hygroscopic
S (dynamic solubility) ([3]; FaSSIF, 1 hour): 0.0036
pH of the filtrate ([3]; FaSSIF, 1 hour): 6.3
S (dynamic solubility) ([3]; FaSSIF, 2 hours): 0.0048
pH of the filtrate ([3]; FaSSIF, 2 hours): 6.2
S (dynamic solubility) ([3]; FaSSIF, 4 hours): 0.0042
pH of the filtrate ([3]; FaSSIF, 4 hours): 6.2
S (dynamic solubility) ([3]; FaSSIF, 24 hours): 0.0070
pH of the filtrate ([3]; FaSSIF, 24 hours): 5.5
S (dynamic solubility) ([3]; FeSSIF, 1 hour): 1.3
pH of the filtrate ([3]; FeSSIF, 1 hour): 4.9
S (dynamic solubility) ([3]; FeSSIF, 2 hours): 1.6
pH of the filtrate ([3]; FeSSIF, 2 hours): 4.9
S (dynamic solubility) ([3]; FeSSIF, 4 hours): 1.8
pH of the filtrate ([3]; FeSSIF, 4 hours): 4.9
S (dynamic solubility) ([3]; FeSSIF, 24 hours): 1.8
pH of the filtrate ([3]; FeSSIF, 24 hours): 4.9
S (dynamic solubility) ([3]; H2O, 1 hour): 0.11
pH of the filtrate ([3]; H2O, 1 hour): 4.5
S (dynamic solubility) ([3]; H2O, 2 hours): 0.11
pH of the filtrate ([3]; H2O, 2 hours): 4.4
S (dynamic solubility) ([3]; H2O, 4 hours): 0.13
pH of the filtrate ([3]; H2O, 4 hours): 4.8
S (dynamic solubility) ([3]; H2O, 24 hours): 0.11
pH of the filtrate ([3]; H2O, 24 hours): 4.7
S (dynamic solubility) ([3]; SGF, 1 hour): 5.4
pH of the filtrate ([3]; SGF, 1 hour): 3.1
S (dynamic solubility) ([3]; SGF, 2 hours): 5.2
pH of the filtrate ([3]; SGF, 2 hours): 3.1
S (dynamic solubility) ([3]; SGF, 4 hours): 5.1
pH of the filtrate ([3]; SGF, 4 hours): 3.1
S (dynamic solubility) ([3]; SGF, 24 hours): 5.3
pH of the filtrate ([3]; SGF, 24 hours): 3.2
T/C (relative tumor proliferation rate) ([4]; 7.5 mg/kg oral once a day, day 3): 71.1%
T/C (relative tumor proliferation rate) ([4]; 7.5 mg/kg oral once a day, day 7): 60.2%
T/C (relative tumor proliferation rate) ([4]; 7.5 mg/kg oral once a day, day 10): 49.9%
T/C (relative tumor proliferation rate) ([4]; 7.5 mg/kg oral once a day, day 14): 46.9%
T/C (relative tumor proliferation rate) ([4]; 7.5 mg/kg oral once a day, day 18): 47.4%
T/C (relative tumor proliferation rate) ([4]; 7.5 mg/kg oral once a day, day 21): 43.73%
T/C (relative tumor proliferation rate) ([4]; 15 mg/kg oral once a day, day 3): 66.3%
T/C (relative tumor proliferation rate) ([4]; 15 mg/kg oral once a day, day 7): 40.4%
T/C (relative tumor proliferation rate) ([4]; 15 mg/kg oral once a day, day 10): 30.9%
T/C (relative tumor proliferation rate) ([4]; 15 mg/kg oral once a day, day 14): 25.3%
T/C (relative tumor proliferation rate) ([4]; 15 mg/kg oral once a day, day 18): 25.4%
T/C (relative tumor proliferation rate) ([4]; 15 mg/kg oral once a day, day 21): 19.41%
